Data taken from paper PMC8833187 (Proceedings of the National Academy of Sciences of the …, 2022).

Columns and labels:
CaM/4Ca^2+ = experiment: Combined time-resolved DEER and ssNMR: binding pathway of M13 to CaM/4Ca^2+; design: species or system Human
[1] = tested on: CaM/4Ca^2+ with R1 labels at A17C–R1 and A128C–R1; details: labelled versus unlabelled CaM/4Ca^2+; cited from earlier work

KRRWKKNFIAVSAANRFKKISSSGAL [M13]
τ, conformational rearrangement of state B to state C (CaM/4Ca^2+): 7 to 18 ms | τ, state A* to collapsed intermediate B (CaM/4Ca^2+): 1.5 to 2.5 ms | timescale τ, state A converted to final compact complex state C (CaM/4Ca^2+; abstract): ≤ 600 μs | reduction of affinity for M13 by R1 labels at A17C–R1 and A128C–R1 [1]: about 2.5 fold
